Results: US12729377B2, “RNAi agents and compositions for inhibiting expression of angiopoietin-like 3 (ANGPTL3), and methods of use” (Arrowhead Pharmaceuticals, Inc., priority 2017, dated 2026)
In the oligonucleotide strings, read from the 5' end, every base follows the letter of its sugar. An asterisk marks phosphorothioate; unmarked linkages are phosphodiester. Other units and linkages are bracketed, terminal groups are in braces. A string of capitals states the bases alone. {NAG37} = tridentate N-acetyl-galactosamine targeting ligand, structure (NAG37)s; [invAb] = inverted abasic unit; m = 2'-O-methyl; f = 2'-fluoro

Columns and labels:
ANGPTL3 gene = test: Example 9: serum LDL in cynomolgus monkeys; format: in vivo, cynomolgus macaque (Macaca fascicularis); conditions: 2.0 mg/kg single SC injection day 1, cynos, n=3
Procedure: Additional ANGPTL3 RNAi agents were evaluated in cynomolgus monkeys. On day 1, cynomolgus macaque (Macaca fascicularis) primates (also referred to herein as “cynos”) were administered a single subcutaneous injection of 0.3 mL/kg (approximately 2-3 mL volume, depending on animal mass) containing 2.0 mg/kg of an ANGPTL3 RNAi agent, which included either AD05488, AD05743, AD05775, or AD05841, each formulated in saline. […] ANGPTL3 RNAi agents AD05488, AD05743, and AD05775 included nucleotide sequences designed to target position 304 of the ANGPTL3 gene. ANGPTL3 RNAi agent AD05841 included nucleotide sequences designed to target position 1035 of the ANGPTL3 gene.
Three (3) cynos in each group were tested (n=3). Blood samples were drawn and serum samples were analyzed on days −14 (predose), −7 (predose), 1 (pre-dose), 8, 15, 22, 29, and 35. Cynos were fasted overnight prior to each collection. ANGPTL3 protein levels in serum were measured by ELISA assay (R&D Systems), according to the manufacturer's recommendations. Triglycerides, total cholesterol, high-density lipoprotein (HDL), and low-density lipoprotein (LDL) in serum were measured on a Cobas® Integra 400 (Roche Diagnostics), according to the manufacturer's recommendations.
The ANGPTL3 protein levels, triglyceride levels, total cholesterol levels, HDL levels, and LDL levels for each animal were normalized. For normalization, the level of ANGPTL3 protein, triglyceride, HDL, and total cholesterol, respectively, for each animal at a time point, was divided by the average pre-treatment level of expression in that animal (in this case at days −14, −7, and 1) to determine the ratio of expression “normalized to pre-treatment.”

ANGPTL3 mRNA = test: Example 12: liver ANGPTL3 mRNA by RT-qPCR in LDLR knockout mice; format: in vivo, LDLR KO mice; conditions: for Avg Relative ANGPTL3 mRNA, Normalized to Control: normalized to Group 1 day 15
Excerpt: To evaluate the effect of RNAi agent administration in a disease model, mice having a genetic mutation for the LDL receptor (referred to herein as LDLR KO mice) were commercially obtained (The Jackson Laboratory). The LDLR KO mice are homozygous for the Ldlr^tm1Her mutation, and have elevated serum cholesterol levels, particularly when placed on a high fat diet. For three weeks prior to the onset of the study, thirty-nine (39) LDLR KO mice were placed on a high fat diet (Teklad Custom Diets TD.88137). An additional eight (8) LDLR KO mice were placed on a normal chow diet over the same three-week period. Pre-dose serum samples were taken on day −15 and day −1 after a four hour fast. At day 1, each mouse was given a single subcutaneous administration of 200 μl/30 g animal body weight containing the respective mg/kg dose of an ANGPTL3 RNAi agent in D5W (dextrose in 5% water), control (D5W) with no RNAi agent, or a control RNAi agent that included a nucleotide sequence designed to target the Hepatitis B Virus (HBV) genome. A second injection of the same formulation was administered to the animals on day 29. The dosing regimen for the study is recited in the following Table 60:
Each mouse remained on its respective diet through the duration of study. The RNAi agent tested (AD05488) included a modified sequence and an N-acetyl-galactosamine-containing targeting ligand conjugated to the 5′ terminal end of the sense strand. (See Tables 3, […] modified sequences and targeting ligand structures). The injections were performed between the skin and muscle (i.e. subcutaneous injections) into the loose skin over the neck and shoulder area. Serum was collected on days 8, 15, 22, 29 (pre-second dose), 36, 43, 50, and 57. LDLR KO mice were fasted for four hours prior to each collection. On day 15, four (4) LDLR KO mice from Groups 1, 2, and 3 (i.e., the groups being administered the high fat “Western” diet) were sacrificed after serum collection, and on day 29, an additional four (4) LDLR KO mice from Groups 1, 2, and 3 were sacrificed after serum collection, for the purpose of performing mRNA assessments.
Additionally, ANGPTL3 mRNA levels were also assessed. On day 15, four (4) mice were sacrificed from each of Groups 1, 2, and 3. On day 29, an additional four (4) mice were sacrificed from each of Groups 1, 2, and 3. On day 57, all remaining animals from all Groups were sacrificed. At sacrifice, livers were harvested, and approximately 100 mg liver samples from the median lobes were collected and snap-frozen in liquid nitrogen for RNA isolation. Levels of ANGPTL3 mRNA in the mice livers were then measured by RT-qPCR, and normalized to the mRNA levels of the mice in Group 1 (high fat “Western” diet; D5W administration; day 15 sacrifice), the results of which are set forth in the following Table 66: […]

AD05488: RNAi agent duplex: antisense AM07235-AS, sense AM07234-SS (antisense mU*fA*mC*fUmGfAmUfCmAfAmAfUmAfUmGfUmUfGmAfG*mC; sense {NAG37}*[invAb]*mGmCmUmCmAmAmCmAfUfAfUmUmUmGmAmUmCmAmGmUmA*[invAb])
Average LDL Normalized to Pre-Treatment (ANGPTL3 gene; Day 8): 0.971 | Average LDL Normalized to Pre-Treatment (ANGPTL3 gene; Day 15): 0.913 | Average LDL Normalized to Pre-Treatment (ANGPTL3 gene; Day 22): 0.949 | Average LDL Normalized to Pre-Treatment (ANGPTL3 gene; Day 29): 0.853 | Average LDL Normalized to Pre-Treatment (ANGPTL3 gene; Day 35): 0.845 | Avg Relative ANGPTL3 mRNA, Normalized to Control (ANGPTL3 mRNA; 3.0 mg/kg days 1 and 29, high fat diet, day 57 sacrifice): 0.024 | Avg Relative ANGPTL3 mRNA, Normalized to Control (ANGPTL3 mRNA; 3.0 mg/kg days 1 and 29, normal chow, day 57 sacrifice): 0.060 | Avg Relative ANGPTL3 mRNA, Normalized to Control (ANGPTL3 mRNA; 3.0 mg/kg, high fat diet, day 15 sacrifice): 0.019 | Avg Relative ANGPTL3 mRNA, Normalized to Control (ANGPTL3 mRNA; 3.0 mg/kg, high fat diet, day 29 sacrifice): 0.032 | reduction in ANGPTL3 mRNA levels (ANGPTL3 mRNA; both high fat Western diet and normal chow-fed diet, LDLR KO mice): significant reduction
